Laboratory results taken from US8268827B2, “Pyridazinone derivatives as PARP inhibitors” (Istituto di Ricerche di Biologia Molecolare P. Angeletti …, priority 2007, dated 2012).
Counter-ions that a name gives are not always drawn.

Test system: BRCA-1 silenced HeLa cells (HeLa shBRCA1-GFP)
Test: Proliferation assay in BRCA-1 silenced HeLa cells
Format: cell-based
Settings: Homo sapiens; BRCA1 silenced HeLa cells, 168 hours; read-out: CC50 in the BRCA1 silenced HeLa cells
Description: Proliferation Assay in BRCA-1 Silenced HeLa Cells
Compounds of the present invention were also tested in an anti-proliferative assay in matched pair BRCA1 wt and BRCA1-(shRNA) HeLa cells.
The assay is based on the ability of living cells to convert a redox dye (resazurin) into a fluorescent end product (resofurin). The amount of resofurin produced is directly proportional to the cell number.
HeLa shBRCA1-GFP—These are HeLa cells transduced at an MOI of 100 with a Lentivirus containing a shRNA against BRCA-1 and an expression cassette for GFP. BRCA-1 silencing is more than 80% as assessed by Taqman analysis and the cells stably express GFP.
HeLa THM-GFP—These are HeLa cells transduced at an MOI of 100 with a control vector not expressing any shRNA.
• Seed 300 cell/well in 96 wells viewplate black in 90 ul culture Medium*: • Incubate 4 hours at 37° C., 5% CO2 • Add 10 ul/well of 10× compound (5% DMSO in H2O) • Incubate for 168 hours at 37° C., 5% CO2 • Add 10 ul of Celltiter Blue solution (Promega, G8081) pre-diluted 1:1 in PBS1× • Incubate the mixture for 45′ at 37° C., 5% CO2 • Incubate 15′ at RT in the dark • Read plate at fluorimeter ex: 550 nm; em: 590 nm *Culture Medium: DMEM (GIBCO, 41966-029), 10% FCS (GIBCO, 10106-169), 0.1 mg/ml Penicillin-Streptomycin (GIBCO, 15140-114), 2 mM L-Glutamine (GIBCO, 3042190)

SMILES	CC50
Cc1c(Cc2ccc(F)c(C(=O)N3CCN(c4ccc(F)c(F)c4)C(=O)C3)c2)n[nH]c(=O)c1C(F)(F)F [Example 26, 3-(3-{[4-(3,4-Difluorophenyl)-3-oxopiperazin-1-yl]carbonyl}-4-fluorobenzyl)-4-methyl-6-oxo-5-(trifluoromethyl)-1,6-dihydropyridazin-1-ium trifluoroacetate]	< 50 nM
O=C(c1cc(Cc2cc(C(F)(F)F)c(=O)[nH]n2)ccc1F)N1CCN(C2CCCCC2)C(=O)C1 [Example 27, 6-{3-[(4-Cyclohexyl-3-oxopiperazin-1-yl)carbonyl]-4-fluorobenzyl}-3-oxo-4-(trifluoromethyl)-2,3-dihydropyridazin-1-ium trifluoroacetate]	50 to 500 nM
CCc1c(Cc2ccc(F)c(C(=O)N3CCN(C4CCCCC4)C(=O)C3)c2)n[nH]c(=O)c1C [Example 28, 3-{3-[(4-Cyclohexyl-3-oxopiperazin-1-yl)carbonyl]-4-fluorobenzyl}-4-ethyl-5-methyl-6-oxo-1,6-dihydropyridazin-1-ium trifluoroacetate]	50 to 500 nM
CCc1c(C)c(Cc2ccc(F)c(C(=O)N3CCN(C4CCCCC4)C(=O)C3)c2)n[nH]c1=O [Example 29, 3-{3-[(4-Cyclohexyl-3-oxopiperazin-1-yl)carbonyl]-4-fluorobenzyl}-5-ethyl-4-methyl-6-oxo-1,6-dihydropyridazin-1-ium trifluoroacetate]	< 50 nM
CCc1cc(Cc2ccc(F)c(C(=O)N3CCN(C4CCCC4)C(=O)C3)c2)n[nH]c1=O [Example 30, 3-{3-[(4-Cyclopentyl-3-oxopiperazin-1-yl)carbonyl]-4-fluorobenzyl}-5-ethyl-6-oxo-1,6-dihydropyridazin-1-ium trifluoroacetate]	< 50 nM
Cc1c(Cc2ccc(F)c(C(=O)N3CCN(c4cc(Cl)cc(Cl)c4)C(=O)C3)c2)n[nH]c(=O)c1C [Example 42, 3-(3-{[4-(3,5-Dichlorophenyl)-3-oxopiperazin-1-yl]carbonyl}-4-fluorobenzyl)-4,5-dimethyl-6-oxo-1,6-dihydropyridazin-1-ium trifluoroacetate]	< 50 nM
Cc1c(Cc2ccc(F)c(C(=O)N3CCN(c4cccc5ccccc45)C(=O)C3)c2)n[nH]c(=O)c1C [Example 43, 3-(4-Fluoro-3-{[4-(1-naphthyl)-3-oxopiperazin-1-yl]carbonyl}benzyl)-4,5-dimethyl-6-oxo-1,6-dihydropyridazin-1-ium trifluoroacetate]	< 50 nM
Cc1c(Cc2ccc(F)c(C(=O)N3CCN(c4cccs4)C(=O)C3)c2)n[nH]c(=O)c1C [Example 44, 3-(4-Fluoro-3-{[3-oxo-4-(2-thienyl)piperazin-1-yl]carbonyl}benzyl)-4,5-dimethyl-6-oxo-1,6-dihydropyridazin-1-ium trifluoroacetate]	< 50 nM
Cc1c(Cc2ccc(F)c(C(=O)N3CCN(CC(C)C(F)(F)F)C(=O)C3)c2)n[nH]c(=O)c1C (stereo not drawn) [Example 45, 6-(4-Fluoro-3-{[3-oxo-4-(3,3,3-trifluoro-2-methylpropyl)piperazin-1-yl]carbonyl}benzyl)-4,5-dimethyl-3-oxo-2,3-dihydropyridazin-1-ium trifluoroacetate]	< 5000 nM
Cc1c(Cc2ccc(F)c(C(=O)N3CCN(C(c4ccccc4)C(F)F)C(=O)C3)c2)n[nH]c(=O)c1C (stereo not drawn) [Example 46, 6-(3-{[4-(2,2-Difluoro-1-phenylethyl)-3-oxopiperazin-1-yl]carbonyl}-4-fluorobenzyl)-4,5-dimethyl-3-oxo-2,3-dihydropyridazin-1-ium trifluoroacetate]	< 50 nM
Cc1c(Cc2ccc(F)c(C(=O)N3CCN(C4CCCOC4)C(=O)C3)c2)n[nH]c(=O)c1C (stereo not drawn) [Example 47, 6-(4-Fluoro-3-{[3-oxo-4-(tetrahydro-2H-pyran-3-yl)piperazin-1-yl]carbonyl}benzyl)-4,5-dimethyl-3-oxo-2,3-dihydropyridazin-1-ium trifluoroacetate]	50 to 500 nM
Cc1c(Cc2ccc(F)c(C(=O)N3CCN(c4csc5ccccc45)C(=O)C3)c2)n[nH]c(=O)c1C [Example 62, 3-(3-{[4-(1-Benzothien-3-yl)-3-oxopiperazin-1-yl]carbonyl}-4-fluorobenzyl)-4,5-dimethyl-6-oxo-1,6-dihydropyridazin-1-ium trifluoroacetate]	50 to 500 nM
Cc1c(Cc2ccc(F)c(C(=O)N3CCN(c4cncs4)C(=O)C3)c2)n[nH]c(=O)c1C [Example 63, 3-(4-Fluoro-3-{[3-oxo-4-(1,3-thiazol-5-yl)piperazin-1-yl]carbonyl}benzyl)-4,5-dimethyl-6-oxo-1,6-dihydropyridazin-1-ium trifluoroacetate]	< 50 nM
Cc1c(Cc2ccc(F)c(C(=O)N3CCN(c4cncnc4)C(=O)C3)c2)n[nH]c(=O)c1C [Example 64, 3-{4-Fluoro-3-[(3-oxo-4-pyrimidin-5-ylpiperazin-1-yl)carbonyl]benzyl}-4,5-dimethyl-6-oxo-1,6-dihydropyridazin-1-ium trifluoroacetate]	< 5000 nM
Cc1c(Cc2ccc(F)c(C(=O)N3CCN(c4cncc(C(F)(F)F)c4)C(=O)C3)c2)n[nH]c(=O)c1C [Example 65, 3-[4-Fluoro-3-({3-oxo-4-[5-(trifluoromethyl)pyridin-3-yl]piperazin-1-yl}carbonyl)benzyl]-4,5-dimethyl-6-oxo-1,6-dihydropyridazin-1-ium trifluoroacetate]	50 to 500 nM
Cc1c(Cc2ccc(F)c(C(=O)N3CCN(C4CCCC(c5ccccc5)C4)C(=O)C3)c2)n[nH]c(=O)c1C (stereo not drawn) [Example 66, 6-(4-Fluoro-3-{[3-oxo-4-(3-phenylcyclohexyl)piperazin-1-yl]carbonyl}benzyl)-4,5-dimethyl-3-oxo-2,3-dihydropyridazin-1-ium trifluoroacetate]	50 to 500 nM
Cc1c(Cc2ccc(F)c(C(=O)N3CCN(C4CCC(c5ccccc5)CC4)C(=O)C3)c2)n[nH]c(=O)c1C (stereo not drawn) [Example 68, 6-(4-Fluoro-3-{[3-oxo-4-(4-phenylcyclohexyl)piperazin-1-yl]carbonyl}benzyl)-4,5-dimethyl-3-oxo-2,3-dihydropyridazin-1-ium trifluoroacetate]	< 50 nM
Cc1c(Cc2ccc(F)c(C(=O)N3CCN(C4CCOC4)C(=O)C3)c2)n[nH]c(=O)c1C (stereo not drawn) [Example 69, 6-(4-Fluoro-3-{[3-oxo-4-(tetrahydrofuran-3-yl)piperazin-1-yl]carbonyl}benzyl)-4,5-dimethyl-3-oxo-2,3-dihydropyridazin-1-ium trifluoroacetate]	50 to 500 nM
Cc1c(Cc2ccc(F)c(C(=O)N3CCN(C4CCc5ccccc5C4)C(=O)C3)c2)n[nH]c(=O)c1C (stereo not drawn) [Example 70, 6-(4-Fluoro-3-{[3-oxo-4-(1,2,3,4-tetrahydronaphthalen-2-yl)piperazin-1-yl]carbonyl}benzyl)-4,5-dimethyl-3-oxo-2,3-dihydropyridazin-1-ium trifluoroacetate]	< 50 nM
Cc1c(Cc2ccc(F)c(C(=O)N3CCN(C4Cc5ccccc5C4)C(=O)C3)c2)n[nH]c(=O)c1C [Example 71, 6-(3-{[4-(2,3-Dihydro-1H-inden-2-yl)-3-oxopiperazin-1-yl]carbonyl}-4-fluorobenzyl)-4,5-dimethyl-3-oxo-2,3-dihydropyridazin-1-ium trifluoroacetate]	50 to 500 nM
Cc1c(Cc2cc(C(=O)N3CCN(C4CCCC4)C(=O)C3)c(F)cc2Br)n[nH]c(=O)c1C [Example 83, 6-{2-Bromo-5-[(4-cyclopentyl-3-oxopiperazin-1-yl)carbonyl]-4-fluorobenzyl}-4,5-dimethylpyridazin-3(2H)-one]	< 50 nM
